Laboratory results: patent EP1276722B1, “NAPHTHAMIDINE UROKINASE INHIBITORS” (ABBOTT LABORATORIES, priority 2000, dated 2001)
pKi: −log10 of the molar value.

target: T1, urokinase enzyme Abbokinase (Homo sapiens, UniProt P00749); test: Inhibition of urokinase on chromogenic substrate S-2444; type: biochemical; details: not given
T1 construct: purchased Abbott Laboratories, Abbott Park, IL

Row | Compound | pKi
1 | COC/C=C/c1cc(C2CC2c2ccc3c(c2)C(C(C)C)N(C)CC3)cc2ccc(C(=N)N)cc12 (centres unmarked) [Example 5, 6-(2-(1-isopropyl-2-methyl-1,2,3,4-tetrahydro-7-isoquinolinyl)cyclopropyl)-8-((1E)-3-methoxy-1-propenyl)-2-naphthalenecarboximidamide] | 7.68

same assay, conditions: read-out: Ki

Row | Compound | pKi
2 | CC(C)C1=NCCc2ccc(C3CC3c3cc(-c4ccoc4)c4cc(C(=N)N)ccc4c3)cc21 (centres unmarked) [Example 1, 8-(3-furyl)-6-(2-(1-isopropyl-3,4-dihydro-7-isoquinolinyl)cyclopropyl)-2-naphthalenecarboximidamide] | 7.39
3 | CC(C)c1nccc2ccc(C3CC3c3ccc4cc(C(=N)N)ccc4c3)cc12 (centres unmarked) [Example 2, 6-(2-(1-isopropyl-7-isoquinolinyl)cyclopropyl)-2-naphthalenecarboximidamide] | 6.32
4 | CC(C)C1c2cc(C3CC3c3cc(-c4ccoc4)c4cc(C(=N)N)ccc4c3)ccc2CCN1C (centres unmarked) [Example 3, 8-(3-furyl)-6-(2-(1-isopropyl-2-methyl-1,2,3,4-tetrahydro-7-isoquinolinyl)cyclopropyl)-2-naphthalenecarboximidamide] | 7.60
5 | COCC=Cc1cc(C2CC2c2ccc3c(c2)C(C(C)C)=NCC3)cc2ccc(C(=N)N)cc12 (centres unmarked) [Example 4, 6-(2-(1-isopropyl-3,4-dihydro-7-isoquinolinyl)cyclopropyl)-8-(3-methoxy-1-propenyl)-2-naphthalenecarboximidamide] | 7.23
6 | CC(C)C1=NCCc2ccc(C3CC3c3cc(C4CCOC4)c4cc(C(=N)N)ccc4c3)cc21 (centres unmarked) [Example 7, 6-(2-(1-isopropyl-3,4-dihydro-7-isoquinolinyl)cyclopropyl)-8-tetrahydro-3-furanyl-2-naphthalenecarboximidamide] | 7.35
7 | CC(C)/C=C/c1cc(C2CC2c2ccc3c(c2)C(C(C)C)=NCC3)cc2ccc(C(=N)N)cc12 (centres unmarked) [Example 8, 6-(2-(1-isopropyl-3,4-dihydro-7-isoquinolinyl)cyclopropyl)-8-((1E)-3-methyl-1-butenyl)-2-naphthalenecarboximidamide] | 7.68
8 | N=C(N)c1ccc2cc(C3CC3c3ccc4c(c3)C(C3CCCCC3)=NCC4)ccc2c1 (centres unmarked) [Example 9, 6-(2-(1-cyclohexyl-3,4-dihydro-7-isoquinolinyl)cyclopropyl)-2-naphthalenecarboximidamide] | 7.30
9 | N=C(N)c1ccc2cc(C3CC3c3ccc4c(c3)C(c3ccccc3)=NCC4)ccc2c1 (centres unmarked) [Example 10, 6-(2-(1-phenyl-3,4-dihydro-7-isoquinolinyl)cyclopropyl)-2-naphthalenecarboximidamide] | 6.85
10 | CCCC1c2cc(C3CC3c3ccc4cc(C(=N)N)ccc4c3)ccc2CCN1C (centres unmarked) [Example 11, 6-(2-(2-methyl-1-propyl-1,2,3,4-tetrahydro-7-isoquinolinyl)cyclopropyl)-2-naphthalenecarboximidamide] | 6.89
11 | CC(C)C1NCCc2ccc(C=Cc3ccc4cc(C(=N)N)ccc4c3)cc21 (centres unmarked) [Example 13, 6-(2-(1-isopropyl-1,2,3,4-tetrahydro-7-isoquinolinyl)ethenyl)-2-naphthalenecarboximidamide] | 6.59
12 | CC(=O)N1CCc2ccc(C3CC3c3ccc4cc(C(=N)N)ccc4c3)cc2C1C(C)C (centres unmarked) [Example 15, 6-(2-(2-acetyl-1-isopropyl-1,2,3,4-tetrahydro-7-isoquinolinyl)cyclopropyl)-2-naphthalenecarboximidamide] | 6.80
13 | CC(C)C1c2cc(C=Cc3ccc4cc(C(=N)N)ccc4c3)ccc2CCN1C (centres unmarked) [Example 16, 6-(2-(1-isopropyl-2-methyl-1,2,3,4-tetrahydro-7-isoquinolinyl)ethenyl)-2-naphthalenecarboximidamide] | 6.92
14 | COC(=O)N1CCc2ccc(C=Cc3ccc4cc(C(=N)N)ccc4c3)cc2C1C(C)C (centres unmarked) [Example 17, methyl 7-(2-(6-(amino(imino)methyl)-2-naphthyl)ethenyl)-1-isopropyl-3,4-dihydro-2(1H)-isoquinolinecarboxylate] | 6.60
15 | CC(C)C1c2cc(C3CC3c3ccc4cc(C(=N)N)ccc4c3)ccc2CCN1Cc1ccccc1 (centres unmarked) [Example 19, 6-(2-(2-benzyl-1-isopropyl-1,2,3,4-tetrahydro-7-isoquinolinyl)cyclopropyl)-2-naphthalenecarboximidamide] | 6.84
16 | CC(C)C1NCCc2ccc(C3CC3c3ccc4cc(C(=N)N)ccc4c3)cc21 (centres unmarked) [Example 20, 6-(2-(1-isopropyl-1,2,3,4-tetrahydro-7-isoquinolinyl)cyclopropyl)-2-naphthalenecarboximidamide] | 7.08
17 | CC(C)C1c2cc(C3CC3c3ccc4cc(C(=N)N)ccc4c3)ccc2CCN1Cc1cccnc1 (centres unmarked) [Example 21, 6-(2-(1-isopropyl-2-(3-pyridinylmethyl)-1,2,3,4-tetrahydro-7-isoquinolinyl)cyclopropyl)-2-naphthalenecarboximidamide] | 7.08
18 | CC(C)C1=NCCc2ccc(C=Cc3cc(Br)c4cc(C(=N)N)ccc4c3)cc21 [Example 22, 8-bromo-6-(2-(1-isopropyl-3,4-dihydro-7-isoquinolinyl)ethenyl)-2-naphthalenecarboximidamide] | 6.54

Row | Compound | pKi
19 | CC(C)C1c2cc(C3CC3c3ccc4cc(C(=N)N)ccc4c3)ccc2CCN1CC1CC1 (centres unmarked) [Example 23, 6-(2-(2-(cyclopropylmethyl)-1-isopropyl-1,2,3,4-tetrahydro-7-isoquinolinyl)cyclopropyl)-2-naphthalenecarboximidamide] | 7.24
20 | CCN1CCc2ccc(C3CC3c3ccc4cc(C(=N)N)ccc4c3)cc2C1C(C)C (centres unmarked) [Example 24, 6-(2-(2-ethyl-1-isopropyl-1,2,3,4-tetrahydro-7-isoquinolinyl)cyclopropyl)-2-naphthalenecarboximidamide] | 7.27
21 | C=CCN1CCc2ccc(C3CC3c3ccc4cc(C(=N)N)ccc4c3)cc2C1C(C)C (centres unmarked) [Example 25, 6-(2-(2-allyl-1-isopropyl-1,2,3,4-tetrahydro-7-isoquinolinyl)cyclopropyl)-2-naphthalenecarboximidamide] | 7.20
22 | CC(C)C1c2cc(C3CC3c3ccc4cc(C(=N)N)ccc4c3)ccc2CCN1CCO (centres unmarked) [Example 26, 6-(2-(2-(2-hydroxyethyl)-1-isopropyl-1,2,3,4-tetrahydro-7-isoquinolinyl)cyclopropyl)-2-naphthalenecarboximidamide] | 7.32
23 | CC(C)C1c2cc(C3CC3c3ccc4cc(C(=N)N)ccc4c3)ccc2CCN1C(C)C (centres unmarked) [Example 27, 6-(2-(1,2-diisopropyl-1,2,3,4-tetrahydro-7-isoquinolinyl)cyclopropyl)-2-naphthalenecarboximidamide] | 6.89
24 | CC1c2cc(C3CC3c3ccc4cc(C(=N)N)ccc4c3)ccc2CCN1C (centres unmarked) [Example 30, 6-(2-(1,2-dimethyl-1,2,3,4-tetrahydro-7-isoquinolinyl)cyclopropyl)-2-naphthalenecarboximidamide] | 6.56
25 | CCC1(CC)CN=C(C(C)C)c2ccc(C3CC3c3ccc4cc(C(=N)N)ccc4c3)cc21 (centres unmarked) [Example 31, 6-(2-(4,4-diethyl-1-isopropyl-3,4-dihydro-6-isoquinolinyl)cyclopropyl)-2-naphthalenecarboximidamide] | 6.46
26 | CCC1(CC)CN(C)C(C(C)C)c2ccc(C3CC3c3ccc4cc(C(=N)N)ccc4c3)cc21 (centres unmarked) [Example 32, 6-(2-(4,4-diethyl-1-isopropyl-2-methyl-1,2,3,4-tetrahydro-6-isoquinolinyl)cyclopropyl)-2-naphthalenecarboximidamide] | 6.46
27 | CC(C)C1c2cc(C3CC3c3ccc4cc(C(=N)N)ccc4c3)ccc2CCN1CC(F)(F)F (centres unmarked) [Example 33, 6-(2-(1-isopropyl-2-(2,2,2-trifluoroethyl)-1,2,3,4-tetrahydro-7-isoquinolinyl)cyclopropyl)-2-naphthalenecarboximidamide] | 5.84
28 | CC(C)C1=NCCc2ccc(C3CC3c3cc(/C=C/C(C)(C)C)c4cc(C(=N)N)ccc4c3)cc21 (centres unmarked) [Example 34, 8-((1E)-3,3-dimethyl-1-butenyl)-6-(2-(1-isopropyl-3,4-dihydro-7-isoquinolinyl)cyclopropyl)-2-naphthalenecarboximidamide] | 7.29
29 | CC(C)C1=NCCc2ccc(C3CC3c3cc(Br)c4cc(C(=N)N)ccc4c3)cc21 (centres unmarked) [Example 35, 8-bromo-6-(2-(1-isopropyl-3,4-dihydro-7-isoquinolinyl)cyclopropyl)-2-naphthalenecarboximidamide] | 6.89
30 | CC(C)C1c2cc(C3CC3c3cc(Br)c4cc(C(=N)N)ccc4c3)ccc2CCN1C (centres unmarked) [Example 36, 8-bromo-6-(2-(1-isopropyl-2-methyl-1,2,3,4-tetrahydro-7-isoquinolinyl)cyclopropyl)-2-naphthalenecarboximidamide] | 7.27
31 | CC(C)/C=C/c1cc(C2CC2c2ccc3c(c2)C(C(C)C)N(C)CC3)cc2ccc(C(=N)N)cc12 (centres unmarked) [Example 37, 6-(2-(1-isopropyl-2-methyl-1,2,3,4-tetrahydro-7-isoquinolinyl)cyclopropyl)-8-((1E)-3-methyl-1-butenyl)-2-naphthalenecarboximidamide] | 8.00
32 | C=C(C)/C=C/c1cc(C2CC2c2ccc3c(c2)C(C(C)C)N(C)CC3)cc2ccc(C(=N)N)cc12 (centres unmarked) [Example 38, 6-(2-(1-isopropyl-2-methyl-1,2,3,4-tetrahydro-7-isoquinolinyl)cyclopropyl)-8-((1E)-3-methyl-1,3-butadienyl)-2-naphthalenecarboximidamide] | 7.40
33 | CC(C)C1c2cc(C3CC3c3cc(C4CC4)c4cc(C(=N)N)ccc4c3)ccc2CCN1C (centres unmarked) [Example 39, 8-cyclopropyl-6-(2-(1-isopropyl-2-methyl-1,2,3,4-tetrahydro-7-isoquinolinyl)cyclopropyl)-2-naphthalenecarboximidamide] | 7.43
34 | COc1ccccc1-c1cc(C2CC2c2ccc3c(c2)C(C(C)C)N(C)CC3)cc2ccc(C(=N)N)cc12 (centres unmarked) [Example 40, 6-(2-(1-isopropyl-2-methyl-1,2,3,4-tetrahydro-7-isoquinolinyl)cyclopropyl)-8-(2-methoxyphenyl)-2-naphthalenecarboximidamide] | 6.09
35 | C=Cc1cc(C2CC2c2ccc3c(c2)C(C(C)C)N(C)CC3)cc2ccc(C(=N)N)cc12 (centres unmarked) [Example 41, 6-(2-(1-isopropyl-2-methyl-1,2,3,4-tetrahydro-7-isoquinolinyl)cyclopropyl)-8-vinyl-2-naphthalenecarboximidamide] | 7.85
